IC50 data for 24 compounds are collected here from US11267812B2 (Mirati Therapeutics, Inc., priority 2016, dated 2022).

One test relates to Phospho-ERK in NCI-H358 cells expressing KRas G12C. Put plainly: Cellular inhibition of KRas G12C by Phospho-ERK measurement in NCI-H358 cells. It is filed as cell-based. Conditions: Homo sapiens, NCI-H358, 3 h, read-out: IC50 (pERK(Thr202/Tyr204) normalized with GAPDH). The essentials: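 After 8–12 h attachment, NCI-H358 cells were treated with compounds for 3 h (0.5% DMSO final), fixed, methanol-permeabilized and immunostained. pERK(Thr202/Tyr204) was read by infrared imaging and normalized to GAPDH as percent of DMSO control. IC50 came from a 4-parameter fit.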
In the case of `C=CC(=O)N1CCN(c2nc(OC[C@H]3CCN(C)C3)nc3c2CCN(c2cc(O)cc4ccccc24)C3)CC1` [Example 188, (S)-1-(4-(7-(3-hydroxynaphthalen-1-yl)-2-((1-methylpyrrolidin-3-yl)methoxy)-5,6,7,8-tetrahydropyrido[3,4-d]pyrimidin-4-yl)piperazin-1-yl)prop-2-en-1-one], the IC50 fell in the range of 1 to 1000 nM.

The same test, now with this note: Homo sapiens; NCI-H358 cells, 3 hours compound treatment; read-out: IC50 (pERK(Thr202/Tyr204) normalized with GAPDH).
As for `C=CC(=O)N1CCN(c2nc(OC[C@@H]3CCCN3C)nc3c2CCN(c2ccccc2Cl)C3)CC1CC#N` (stereo partly drawn) [Example 229, 2-(1-acryloyl-4-(7-(2-chlorophenyl)-2-(((S)-1-methylpyrrolidin-2-yl)methoxy)-5,6,7,8-tetrahydropyrido[3,4-d]pyrimidin-4-yl)piperazin-2-yl)acetonitrile], the IC50 lay in the range of 1 to 1000 nM.
On the same count and under the same terms, the figure for `C=CC(=O)N1CCN(c2nc(OC[C@@H]3CCCN3C)nc3c2CCN(c2cc(O)cc4ccccc24)C3)C(CO)C1` (stereo partly drawn) [Example 169, 1-[3-(hydroxymethyl)-4-[7-(3-hydroxy-1-naphthyl)-2-[[(2S)-1-methylpyrrolidin-2-yl]methoxy]-6,8-dihydro-5H-pyrido[3,4-d]pyrimidin-4-yl]piperazin-1-yl]prop-2-en-1-one] is 1 to 1000 nM; for `C=CC(=O)N1CCN(c2nc(OC[C@@H]3CN(C)CCN3)nc3c2CCN(c2cccc4ccccc24)C3)CC1CC#N` (stereo partly drawn) [Example 223, 2-(1-acryloyl-4-(2-(((S)-4-methylpiperazin-2-yl)methoxy)-7-(naphthalen-1-yl)-5,6,7,8-tetrahydropyrido[3,4-d]pyrimidin-4-yl)piperazin-2-yl)acetonitrile] it is 1 to 1000 nM; for `C=CC(=O)N1CCN(c2nc(OCC(C)(C)N(C)C)nc3c2CCN(c2cccc4ccccc24)C3)CC1CC#N` (stereo not drawn) [Example 269, 2-(1-acryloyl-4-(2-(2-(dimethylamino)-2-methylpropoxy)-7-(naphthalen-1-yl)-5,6,7,8-tetrahydropyrido[3,4-d]pyrimidin-4-yl)piperazin-2-yl)acetonitrile] it is 1 to 1000 nM.
On to `C=CC(=O)N1CCN(c2nc(O[C@H](C)CN(C)C)nc3c2CCN(c2cc(O)cc4ccccc24)C3)CC1` [Example 19, (R)-1-(4-(2-((1-(dimethylamino)propan-2-yl)oxy)-7-(3-hydroxynaphthalen-1-yl)-5,6,7,8-tetrahydropyrido[3,4-d]pyrimidin-4-yl)piperazin-1-yl)prop-2-en-1-one], for which the IC50 is 1 to 1000 nM.
Still for that read-out and setting: the figure for `C=CC(=O)N1CCN(c2nc(OC[C@@H]3CCCN3C)nc3c2CCN(c2ccc(F)cc2C(F)(F)F)C3)CC1CC#N` (stereo partly drawn) [Example 276, 2-(1-acryloyl-4-(7-(4-fluoro-2-(trifluoromethyl)phenyl)-2-(((S)-1-methylpyrrolidin-2-yl)methoxy)-5,6,7,8-tetrahydropyrido[3,4-d]pyrimidin-4-yl)piperazin-2-yl)acetonitrile] is 1 to 1000 nM; for `C=CC(=O)N1CCN(c2nc(O[C@H](C)CN(C)C)nc3c2CCN(c2cc(O)cc4ccccc24)C3)CC1CC#N` (stereo partly drawn) [Example 150, 2-(1-acryloyl-4-(2-(((R)-1-(dimethylamino)propan-2-yl)oxy)-7-(3-hydroxynaphthalen-1-yl)-5,6,7,8-tetrahydropyrido[3,4-d]pyrimidin-4-yl)piperazin-2-yl)acetonitrile] it is 1 to 1000 nM.
For `C=CC(=O)N1CCN(c2nc(OC[C@@H]3CCCN3C)nc3c2CCN(c2c(C)ccc4cn[nH]c24)C3)CC1CC#N` (stereo partly drawn) [Example 238, 2-(1-acryloyl-4-(7-(6-methyl-1H-indazol-7-yl)-2-(((S)-1-methylpyrrolidin-2-yl)methoxy)-5,6,7,8-tetrahydropyrido[3,4-d]pyrimidin-4-yl)piperazin-2-yl)acetonitrile], the IC50 was 1 to 1000 nM.
For the compound `C=CC(=O)N1CCN(c2nc(O[C@H](C)CN3CCCCC3)nc3c2CCN(c2cc(O)cc4ccccc24)C3)CC1` [Example 75, (R)-1-(4-(7-(3-hydroxynaphthalen-1-yl)-2-((1-(piperidin-1-yl)propan-2-yl)oxy)-5,6,7,8-tetrahydropyrido[3,4-d]pyrimidin-4-yl)piperazin-1-yl)prop-2-en-1-one], the IC50 lay in the range of 1 to 1000 nM.
Same read-out and setting: the figure for `C=CC(=O)N1CCN(c2nc(OCCN3CCC(C)CC3)nc3c2CCN(c2cc(O)cc4ccccc24)C3)CC1` [Example 92, 1-(4-(7-(3-hydroxynaphthalen-1-yl)-2-(2-(4-methylpiperidin-1-yl)ethoxy)-5,6,7,8-tetrahydropyrido[3,4-d]pyrimidin-4-yl)piperazin-1-yl)prop-2-en-1-one] is 1 to 1000 nM; for `C=CC(=O)N1CCN(c2nc(OC[C@@H]3CCCN3CC)nc3c2CCN(c2cc(O)cc4ccccc24)C3)CC1` [Example 197, (S)-1-(4-(2-((1-ethylpyrrolidin-2-yl)methoxy)-7-(3-hydroxynaphthalen-1-yl)-5,6,7,8-tetrahydropyrido[3,4-d]pyrimidin-4-yl)piperazin-1-yl)prop-2-en-1-one] it is 1 to 1000 nM.
The same measure, in the same setting: with `C=CC(=O)N1CCN(c2nc(OC[C@@H]3CCCN3C)nc3c2CCN(c2cncc4ccccc24)C3)CC1CC#N` (stereo partly drawn) [Example 260, 2-[4-[7-(4-isoquinolyl)-2-[[(2S)-1-methylpyrrolidin-2-yl]methoxy]-6,8-dihydro-5H-pyrido[3,4-d]pyrimidin-4-yl]-1-prop-2-enoyl-piperazin-2-yl]acetonitrile] the figure was 1 to 1000 nM.
On the same count and under the same terms, with `C=CC(=O)N1CCN(c2nc(OC[C@@H]3CCN(C)C3)nc3c2CCN(c2cc(O)cc4ccccc24)C3)CC1CC#N` (stereo partly drawn) [Example 179, 2-[4-[7-(3-hydroxy-1-naphthyl)-2-[[(3R)-1-methylpyrrolidin-3-yl]methoxy]-6,8-dihydro-5H-pyrido[3,4-d]pyrimidin-4-yl]-1-prop-2-enoyl-piperazin-2-yl]acetonitrile] the figure was 1 to 1000 nM; with `C=CC(=O)N1CCN(c2nc(OC[C@@H]3CCCN3C)nc3c2CCN(c2cnccc2C(F)(F)F)C3)CC1CC#N` (stereo partly drawn) [Example 212, 2-(1-acryloyl-4-(2-(((S)-1-methylpyrrolidin-2-yl)methoxy)-7-(4-(trifluoromethyl)pyridin-3-yl)-5,6,7,8-tetrahydropyrido[3,4-d]pyrimidin-4-yl)piperazin-2-yl)acetonitrile], 1 to 1000 nM.
On to `C=CC(=O)N1CCN(c2nc(OC[C@H]3CN(C)CCO3)nc3c2CCN(c2cccc4ccccc24)C3)CC1CC#N` (stereo partly drawn) [Example 270, 2-(1-acryloyl-4-(2-(((R)-4-methylmorpholin-2-yl)methoxy)-7-(naphthalen-1-yl)-5,6,7,8-tetrahydropyrido[3,4-d]pyrimidin-4-yl)piperazin-2-yl)acetonitrile], for which the IC50 fell in the range of 1 to 1000 nM.
Still for that read-out and setting: the figure for `C=CC(=O)N1CCN(c2nc(OC[C@H]3CCCN3C)nc3c2CCN(c2c(C(F)(F)F)ccc4[nH]ncc24)C3)CC1CC#N` (stereo partly drawn) [Example 243, 2-[4-[2-[[(2R)-1-methylpyrrolidin-2-yl]methoxy]-7-[5-(trifluoromethyl)-1H-indazol-4-yl]-6,8-dihydro-5H-pyrido[3,4-d]pyrimidin-4-yl]-1-prop-2-enoyl-piperazin-2-yl]acetonitrile] is 1 to 1000 nM.
Consider `C=CC(=O)N1CCN(c2nc(O[C@H](C)CN(C)C)nc3c2CCN(c2c(C)ccc4[nH]ncc24)C3)CC1CC#N` (stereo partly drawn) [Example 152, 2-[4-[2-[(1R)-2-(dimethylamino)-1-methyl-ethoxy]-7-(5-methyl-1H-indazol-4-yl)-6,8-dihydro-5H-pyrido[3,4-d]pyrimidin-4-yl]-1-prop-2-enoyl-piperazin-2-yl]acetonitrile], for which the IC50 fell in the range of 1 to 1000 nM.
On the same count and under the same terms, with `C=CC(=O)N1CCN(c2nc(OC[C@@H]3CCCN3C)nc3c2CCN(c2cc(O)cc4ccccc24)C3)[C@@H](C)C1` [Example 202, 1-((S)-4-(7-(3-hydroxynaphthalen-1-yl)-2-(((S)-1-methylpyrrolidin-2-yl)methoxy)-5,6,7,8-tetrahydropyrido[3,4-d]pyrimidin-4-yl)-3-methylpiperazin-1-yl)prop-2-en-1-one] the figure was 1 to 1000 nM; with `C=CC(=O)N1CCN(c2nc(OCC3CCN(CCOC)C3)nc3c2CCN(c2cc(O)cc4ccccc24)C3)CC1` (stereo not drawn) [Example 103, 1-(4-(7-(3-hydroxynaphthalen-1-yl)-2-((1-(2-methoxyethyl)pyrrolidin-3-yl)methoxy)-5,6,7,8-tetrahydropyrido[3,4-d]pyrimidin-4-yl)piperazin-1-yl)prop-2-en-1-one], 1 to 1000 nM.
The same measure, in the same setting: the figure for `C=CC(=O)N1CCN(c2nc(OCCN3CCC(OC)CC3)nc3c2CCN(c2cc(O)cc4ccccc24)C3)CC1` [Example 108, 1-(4-(7-(3-hydroxynaphthalen-1-yl)-2-(2-(4-methoxypiperidin-1-yl)ethoxy)-5,6,7,8-tetrahydropyrido[3,4-d]pyrimidin-4-yl)piperazin-1-yl)prop-2-en-1-one] is 1 to 1000 nM.
For `C=CC(=O)N1CCN(c2nc(OCC3CCN(C4CC4)C3)nc3c2CCN(c2cc(O)cc4ccccc24)C3)CC1` (stereo not drawn) [Example 190, 1-(4-(2-((1-cyclopropylpyrrolidin-3-yl)methoxy)-7-(3-hydroxynaphthalen-1-yl)-5,6,7,8-tetrahydropyrido[3,4-d]pyrimidin-4-yl)piperazin-1-yl)prop-2-en-1-one], the IC50 was 1 to 1000 nM.
Still for that read-out and setting: the figure for `C=CC(=O)N1CCN(c2nc(OCCN3C[C@@H]4CC[C@H]3C4)nc3c2CCN(c2cc(O)cc4ccccc24)C3)CC1` [Example 77, 1-(4-(2-(2-((1S,4R)-2-azabicyclo[2.2.1]heptan-2-yl)ethoxy)-7-(3-hydroxynaphthalen-1-yl)-5,6,7,8-tetrahydropyrido[3,4-d]pyrimidin-4-yl)piperazin-1-yl)prop-2-en-1-one] is 1 to 1000 nM; for `C=CC(=O)N1CCN(c2nc(OC[C@@H]3CCCN(C)C3)nc3c2CCN(c2cc(O)cc4ccccc24)C3)CC1` [Example 192, (R)-1-(4-(7-(3-hydroxynaphthalen-1-yl)-2-((1-methylpiperidin-3-yl)methoxy)-5,6,7,8-tetrahydropyrido[3,4-d]pyrimidin-4-yl)piperazin-1-yl)prop-2-en-1-one] it is 1 to 1000 nM.
